From article PMC9606572, “Development of an innovative in vivo model of PJI treated with DAIR” (Frontiers in Medicine, 2022)
In brackets after ≈: the same amount, converted by molar mass.

How the values were obtained:
[1] = Vancomycin serum pharmacokinetics and therapeutic monitoring in rabbits; settings: 50 mg/kg IV every 12 h, Roche VANC3 assay
[2] = tested on: Methicillin-Resistant Staphylococcus aureus strain ATCC 33591; settings: MRSA ATCC 33591; determined previously; cited from earlier work
Protocol: The Methicillin-Resistant Staphylococcus aureus strain ATCC 33591, previously used in our laboratory for biofilms models, was used. […] Bacteria were grown overnight on tryptic soy agar (TSA) plates from frozen stock. Some colonies were then suspended in sterile PBS, adjusted to an OD620 nm of 0.5 (∼8 log10 CFU), and diluted 1:10 in PBS. The bacterial suspension was stored at 4°C until inoculation (1.5–2 h). Serial dilutions of the bacterial inoculum were plated on TSA to confirm the bacterial inoculum.

[3] = tested on: MRSA strain ATCC 33591; assay type: in vivo, New Zealand White rabbits; settings: surgical debridement at day 7 followed by 50 mg/kg IV vancomycin twice a day for 7 days, N = 5
From the text: Following general anesthesia, the animals were installed in a Class II biosafety cabinet. The operated leg was disinfected twice with 2% chlorhexidine gluconate alcohol solution (Qualiphar, Bornem, Belgium) and the leg was sterile draped. The joint was approached through a medial parapatellar incision. The medial meniscus was resected and 5 mm of the medial tibial plateau was removed using a high-speed burr. The cut height was confirmed using a spacer block. The bone surface was then further prepared using a custom tibial punch. After irrigation of the joint space with sterile saline, the final implants were impacted. The joint was then further irrigated with sterile saline. The joint capsule, subcutaneous tissues, and skin were closed separately with running sutures using a 3/0 polyester thread. The joints of groups B and C animals were inoculated by intra-articular injection of 100 μl of a 6.5 log10 CFU/ml MRSA suspension after the closure of the subcutaneous tissues. […] The wounds were then covered using an antiseptic spray and dressed.
Animals of groups C were operated on 1 week after the initial surgery. Following anesthesia, the operated leg was disinfected twice with 2% chlorhexidine gluconate alcohol solution and the leg was draped. The initial approach was re-used. Pus samples were collected immediately after the capsule was breached and stored on ice until analyzed. […]

[4] = Renal tolerance of vancomycin regimen (serum creatinine); assay type: in vivo, New Zealand White rabbits
Protocol: Creatinine serum concentrations were measured in group A animals using a Fuji Dri-Chem analyzer (Fujifilm Corporation, Tokyo, Japan) with CRE-PIII slides, as per the manufacturer’s instructions.

In the case of `CN[C@H](CC(C)C)C(=O)N[C@H]1C(=O)N[C@@H](CC(N)=O)C(=O)N[C@H]2C(=O)N[C@H]3C(=O)N[C@H](C(=O)N[C@H](C(=O)O)c4cc(O)cc(O)c4-c4cc3ccc4O)[C@H](O)c3ccc(c(Cl)c3)Oc3cc2cc(c3O[C@@H]2O[C@H](CO)[C@@H](O)[C@H](O)[C@H]2O[C@H]2C[C@](C)(N)[C@H](O)[C@H](C)O2)Oc2ccc(cc2Cl)[C@H]1O` [vancomycin, Vancomycin], the “vancomycin serum concentration 12 h after the injections” value ([1]; group A NZW rabbits) is given as roughly 0 µg/mL, the “AUC0–12 h following the first vancomycin injection” value ([1]; group A non-infected NZW rabbits, 1st injection, trapezoid rule, mean, N = 5, SD 15.79) is given as 213.0 µg·h/mL and the MBEC [2] is given as greater than 1024 µg/mL. For the same compound, the MIC [2] was 1 µg/mL (≈ 0.69 µM), the “bacterial counts in all samples (bone, pus, implant) except the joint capsule, group C versus group B” value ([3]; 5.5 log10 CFU MRSA inoculum, p < 0.0001) was “significantly reduced” and the “mean difference in CFU counts in capsule samples, group C versus group B” value ([3]; not statistically significant, p = 0.35) was 0.74 log10 CFU/g. The renal toxicity ([4]; NZW rabbits, 50 mg/kg IV vancomycin twice a day) was “No renal toxicity was observed” and the “serum creatinine concentrations throughout the experiment” value ([4]; group A NZW rabbits, 50 mg/kg IV vancomycin twice a day for 7 days, Fuji Dri-Chem analyzer) was “stable”.
